Results reported in patent publication US20230406843A1, “Progranulin Modulators and Methods of Using the Same” (ARKUDA THERAPEUTICS, priority 2020, published 2023).
pEC50: −log10 of the molar value.

tested on: progranulin; assay: Progranulin induction cellular assay (ELISA of secreted mouse PGRN); assay type: cell-based; conditions: progranulin induction assay; mouse pMG, primary cortical neurons and BV-2 cell lines named, cell type not given; ELISA-based readout; read-out: EC50
Experimental: Cellular Assays: Progranulin induction assay. To measure the efficacy of compounds, a progranulin induction cellular assay in mouse primary microglia (pMG), primary cortical neurons, and BV-2 cell lines is used. BV-2 cells are split the day before plating into a 96 well plate format at approximately 80%. Cells should be plated the day before and allowed for 1 hour attachment period and for 16 hour incubation. Levels of progranulin secreted into the cell culture medium or retained in the cell lysate can be quantified using an ELISA-based readout and measurement of secreted mouse PGRN in the medium was assessed by the methodology published by Ghidoni et al. 2012. Standard ELISA kits to measure PGRN are available from vendors such as Adipogen, R&D, and Biovendor.
Table B below presents the results of a progranulin induction assay as described above.

Row | Compound | pEC50
1 | N[C@@H]1CC[C@@H](C(=O)N2CCc3ccccc3[C@H]2c2ccc(F)cc2F)OC1 (single isomer, unassigned) [Compound 5019] | 7.00
2 | N[C@]12CC[C@](C(=O)N3CCc4ccccc4[C@@H]3c3ccc(F)cc3)(C1)OC2 (single isomer, unassigned) [Compound 5021] | 6.83
3 | N[C@]12CC[C@](C(=O)N3CCc4ccccc4[C@H]3c3ccc(F)cc3)(C1)OC2 (single isomer, unassigned) [Compound 5023] | 6.67
4 | CO[C@H]1C[C@H](C(=O)N2CCc3ccccc3[C@@H]2c2ccc(F)cc2)OC[C@H]1N (single isomer, unassigned) [Compound 5082] | 7.36
5 | C[C@]1(C(=O)N2CCc3ccccc3[C@@H]2c2ccc(F)cc2)C[C@@H](N)CCO1 (single isomer, unassigned) [Compound 5235] | 6.43
6 | C[C@]1(C(=O)N2CCc3ccccc3[C@@H]2c2ccc(F)cc2)C[C@H](N)CCO1 (single isomer, unassigned) [Compound 5236] | 6.41
7 | C[C@@]1(C(=O)N2CCc3ccccc3[C@@H]2c2ccc(F)cc2)C[C@H](N)CCO1 (single isomer, unassigned) [Compound 5237] | 6.18
8 | C[C@@]1(C(=O)N2CCc3ccccc3[C@@H]2c2ccc(F)cc2)C[C@@H](N)CCO1 (single isomer, unassigned) [Compound 5238] | 6.98
9 | O=C([C@H]1OCCNC[C@H]1O)N1CCc2ccccc2[C@@H]1c1ccc(F)cc1 (single isomer, unassigned) [Compound 5246] | 7.00
10 | O=C([C@H]1CCNCCO1)N1CCc2ccccc2[C@@H]1c1ccc(F)cc1F (single isomer, unassigned) [Compound 5263] | 7.11
11 | O=C([C@@H]1CCNCCO1)N1CCc2ccccc2[C@@H]1c1ccc(F)cc1F (single isomer, unassigned) [Compound 5264] | 7.32
12 | O=C([C@@H]1OCCNC[C@@H]1F)N1CCc2ccccc2[C@@H]1c1ccc(F)cc1 (single isomer, unassigned) [Compound 5418] | 6.45
13 | O=C([C@H]1C[C@@H]2NCCS[C@H]2CO1)N1CCc2ccccc2[C@@H]1c1ccc(F)cc1 (single isomer, unassigned) [Compound 5534] | 7.82
14 | CC(=O)N1CCN[C@H]2C[C@H](C(=O)N3CCc4ccccc4[C@@H]3c3ccc(F)cc3)OC[C@@H]21 (single isomer, unassigned) [Compound 5543] | 8.52
15 | CCC(=O)N1CCN[C@H]2C[C@H](C(=O)N3CCc4ccccc4[C@@H]3c3ccc(F)cc3)OC[C@@H]21 (single isomer, unassigned) [Compound 5544] | 7.72
16 | O=C([C@H]1C[C@@H]2NCCN(CC(F)(F)F)[C@H]2CO1)N1CCc2ccccc2[C@@H]1c1ccc(F)cc1 (single isomer, unassigned) [Compound 5545] | 8.40
17 | C[S@@+2]([NH-])([O-])[C@H]1CO[C@@H](C(=O)N2CCc3ccccc3[C@@H]2c2ccc(F)cc2)C[C@@H]1N (single isomer, unassigned) [Compound 5547] | 7.21
18 | C[S@](=N)(=O)[C@H]1CO[C@@H](C(=O)N2CCc3ccccc3[C@@H]2c2ccc(F)cc2)C[C@@H]1N (single isomer, unassigned) [Compound 5548] | 7.15
19 | CC[S@@+2]([NH-])([O-])[C@H]1CO[C@@H](C(=O)N2CCc3ccccc3[C@@H]2c2ccc(F)cc2)C[C@@H]1N (single isomer, unassigned) [Compound 5549] | 7.52
20 | CC[S@](=N)(=O)[C@H]1CO[C@@H](C(=O)N2CCc3ccccc3[C@@H]2c2ccc(F)cc2)C[C@@H]1N (single isomer, unassigned) [Compound 5550] | 7.77
21 | CC[S@+2]([O-])([N-]C)[C@H]1CO[C@@H](C(=O)N2CCc3ccccc3[C@@H]2c2ccc(F)cc2)C[C@@H]1N (single isomer, unassigned) [Compound 5551] | 7.57
22 | CC[S@@](=O)(=NC)[C@H]1CO[C@@H](C(=O)N2CCc3ccccc3[C@@H]2c2ccc(F)cc2)C[C@@H]1N (single isomer, unassigned) [Compound 5552] | 7.96
23 | N=[S@]1(=O)CCN[C@H]2C[C@H](C(=O)N3CCc4ccccc4[C@@H]3c3ccc(F)cc3)OC[C@@H]21 (single isomer, unassigned) [Compound 5554] | 5.31
24 | C[N-][S@@+2](C)([O-])[C@H]1CO[C@@H](C(=O)N2CCc3ccccc3[C@@H]2c2ccc(F)cc2)C[C@@H]1N (single isomer, unassigned) [Compound 5555] | 7.54
25 | C[N-][S@+2](C)([O-])[C@H]1CO[C@@H](C(=O)N2CCc3ccccc3[C@@H]2c2ccc(F)cc2)C[C@@H]1N (single isomer, unassigned) [Compound 5556] | 7.15
26 | CC[N-][S@@+2](C)([O-])[C@H]1CO[C@@H](C(=O)N2CCc3ccccc3[C@@H]2c2ccc(F)cc2)C[C@@H]1N (single isomer, unassigned) [Compound 5557] | 6.28
27 | CC[N-][S@+2](C)([O-])[C@H]1CO[C@@H](C(=O)N2CCc3ccccc3[C@@H]2c2ccc(F)cc2)C[C@@H]1N (single isomer, unassigned) [Compound 5558] | 6.51

More lines, now with the values ahead:

Row | pEC50 | Compound
28 | 6.30 | NCC1COC(C(=O)N2CCc3ccccc3[C@@H]2c2ccc(F)cc2)C1 (mixture of isomers) [Compound 5014, ((2R)-4-(aminomethyl)tetrahydrofuran-2-yl)((S)-1-(4-fluorophenyl)-3,4-dihydroisoquinolin-2(1H)-yl)methanone]
29 | 6.79 | NC[C@@]1(O)COC(C(=O)N2CCc3ccccc3[C@@H]2c2ccc(F)cc2)C1 (single isomer, unassigned) [Compound 5004]
30 | 6.67 | NC[C@]1(O)COC(C(=O)N2CCc3ccccc3[C@@H]2c2ccc(F)cc2)C1 (single isomer, unassigned) [Compound 5005]
31 | 6.84 | NCC1(O)COC(C(=O)N2CCc3ccccc3[C@@H]2c2ccc(F)cc2)C1 (single isomer, unassigned) [Compound 5006]
32 | 6.85 | NCC1(O)COC(C(=O)N2CCc3ccccc3[C@@H]2c2ccc(F)cc2)C1 (single isomer, unassigned) [Compound 5007]
33 | 6.70 | N[C@H]1CC[C@@H](C(=O)N2CCc3ccccc3[C@@H]2c2ccc(F)cc2)OC1 (single isomer, unassigned) [Compound 5016]
34 | 7.04 | N[C@@H]1CC[C@H](C(=O)N2CCc3ccccc3[C@@H]2c2ccc(F)cc2)OC1 (single isomer, unassigned) [Compound 5017]
35 | 6.31 | N[C@H]1CCO[C@H](C(=O)N2CCc3ccccc3[C@@H]2c2ccc(F)cc2)C1 (single isomer, unassigned) [Compound 5027]
36 | 7.38 | N[C@@H]1CCO[C@@H](C(=O)N2CCc3ccccc3[C@@H]2c2ccc(F)cc2)C1 (single isomer, unassigned) [Compound 5028]
37 | 6.30 | O=C([C@@H]1C[C@@](O)(CNCCO)CO1)N1CCc2ccccc2[C@@H]1c1ccc(F)cc1 (single isomer, unassigned) [Compound 5038]
38 | 6.45 | O=C([C@@H]1C[C@](O)(CNCCO)CO1)N1CCc2ccccc2[C@@H]1c1ccc(F)cc1 (single isomer, unassigned) [Compound 5039]
39 | 6.76 | O=C([C@H]1C[C@@](O)(CNCCO)CO1)N1CCc2ccccc2[C@@H]1c1ccc(F)cc1 (single isomer, unassigned) [Compound 5040]
40 | 6.79 | O=C([C@H]1CCNCCO1)N1CCc2ccccc2[C@@H]1c1ccc(F)cc1 (single isomer, unassigned) [Compound 5044]
41 | 7.11 | O=C([C@@H]1CCNCCO1)N1CCc2ccccc2[C@@H]1c1ccc(F)cc1 (single isomer, unassigned) [Compound 5045]
42 | 7.21 | NC[C@]1(O)CC[C@@H](C(=O)N2CCc3ccccc3[C@@H]2c2ccc(F)cc2)OC1 (single isomer, unassigned) [Compound 5046]
43 | 7.07 | NC[C@@]1(O)CC[C@@H](C(=O)N2CCc3ccccc3[C@@H]2c2ccc(F)cc2)OC1 (single isomer, unassigned) [Compound 5047]
44 | 6.02 | O=C([C@@H]1C[C@@H](NCCO)CO1)N1CCc2ccccc2[C@@H]1c1ccc(F)cc1 (single isomer, unassigned) [Compound 5066]
45 | 6.12 | O=C([C@@H]1C[C@H](NCCO)CO1)N1CCc2ccccc2[C@@H]1c1ccc(F)cc1 (single isomer, unassigned) [Compound 5067]
46 | 6.60 | N[C@@]1(CO)CO[C@@H](C(=O)N2CCc3ccccc3[C@@H]2c2ccc(F)cc2)C1 (single isomer, unassigned) [Compound 5071]
47 | 6.78 | N[C@H]1CCO[C@@H](C(=O)N2CCc3ccccc3[C@@H]2c2ccc(F)cc2)C1 (single isomer, unassigned) [Compound 5080]
48 | 6.73 | N[C@@H]1CCO[C@H](C(=O)N2CCc3ccccc3[C@@H]2c2ccc(F)cc2)C1 (single isomer, unassigned) [Compound 5081]
49 | 6.79 | O=C([C@H]1CNCCCO1)N1CCc2ccccc2[C@@H]1c1ccc(F)cc1 (single isomer, unassigned) [Compound 5090]
50 | 6.39 | O=C([C@@H]1CNCCCO1)N1CCc2ccccc2[C@@H]1c1ccc(F)cc1 (single isomer, unassigned) [Compound 5091]
51 | 7.55 | O=C([C@H]1C[C@@H]2NCC(CO)O[C@H]2CO1)N1CCc2ccccc2[C@@H]1c1ccc(F)cc1 (single isomer, unassigned) [Compound 5535]
